Like-named read-outs stand apart in the source and are kept apart here.
How the values were obtained:
OCI-LY10 = test: CTG Cell Viability Assay - OCI-LY10; format: cell-based, human; settings: OCI-LY10, 4 days, read-out: CTG Cell Viability Assay - OCI-LY10: Average external-IC50
In short: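 OCI-LY10 cells exposed to 9-dose, 1:3 dilutions from 10 μM top (0.2% DMSO) for 4 days at 37° C, 5% CO2. Viability by CellTiter-Glo luminescence; IC50 from three-parameter logistic fit.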

IRAK4 = IRAK4 (Homo sapiens (Human), UniProt Q9NWZ3); test: IRAK4 MSD degradation in OCI-LY10; format: cell-based
In short: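 OCI-LY10 cells treated with 8-point 1:3 dilutions (top 1 to 10 μM final) for 4 to 24 h at 37° C. Lysate IRAK4 measured by MSD sandwich immunoassay (2H9 capture, Y279 detection, SULFO-TAG anti-rabbit). DC50 from three-parameter logistic fit.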

[1] = OCI-LY10, 4 hrs, MSD, read-out: IRAK4 MSD degradation in OCI-LY10 at 4 hrs: Average external-Abs DC50
[2] = OCI-LY10, 24 hrs, MSD, read-out: IRAK4 MSD degradation in OCI-LY10 at 24 hrs: Average external-Abs DC50
[3] = OCI-LY10, 4 hrs, read-out: IRAK4 MSD degradation in OCI-LY10 at 4 hrs: DC50
[4] = OCI-LY10, 24 hrs, read-out: IRAK4 MSD degradation in OCI-LY10 at 24 hrs: DC50

IRAK4, sequence (Q9NWZ3 whole entry): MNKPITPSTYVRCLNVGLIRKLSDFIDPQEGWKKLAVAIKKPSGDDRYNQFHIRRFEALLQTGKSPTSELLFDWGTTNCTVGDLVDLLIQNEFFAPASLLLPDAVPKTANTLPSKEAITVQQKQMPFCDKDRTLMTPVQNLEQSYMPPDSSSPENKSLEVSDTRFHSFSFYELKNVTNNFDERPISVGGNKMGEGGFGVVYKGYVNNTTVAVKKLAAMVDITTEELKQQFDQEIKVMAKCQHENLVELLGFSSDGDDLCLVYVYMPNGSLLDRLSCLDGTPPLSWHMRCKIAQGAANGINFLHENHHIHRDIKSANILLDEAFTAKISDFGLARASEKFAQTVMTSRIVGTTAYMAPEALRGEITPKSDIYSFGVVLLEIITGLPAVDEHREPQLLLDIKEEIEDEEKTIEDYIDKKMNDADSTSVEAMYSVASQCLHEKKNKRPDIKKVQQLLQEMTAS

| SMILES | IC50 (OCI-LY10; Homo sapiens, OCI-Ly10, 96 h) | DC50 (IRAK4; [1]) | DC50 (IRAK4; [2]) | DC50 (IRAK4; [3]) | DC50 (IRAK4; [4]) | IC50 (OCI-LY10) |
| --- | --- | --- | --- | --- | --- | --- |
| CC[C@@H]1[C@H](F)C(=O)N[C@@H]1COc1ncc(C#CC2CCN(CCOCCNc3cccc4c3C(=O)N(C3CCC(=O)NC3=O)C4=O)CC2)c2cc(C(N)=O)c(OC)cc12 (stereo partly drawn) [I-357, 4-[2-[1-[2-[2-[[2-(2,6-dioxo-3-piperidyl)-1,3-dioxo-isoindolin-4-yl]amino]ethoxy]ethyl]-4-piperidyl]ethynyl]-1-[[(2S,3S,4S)-3-ethyl-4-fluoro-5-oxo-pyrrolidin-2-yl]methoxy]-7-methoxy-isoquinoline-6-carboxamide] | > 1000 nM | > 1000 nM | – | – | – | – |
| O=C1CCC(N2C(=O)c3cccc(NCCCOC4CCN(Cc5ccc(-n6cc(NC(=O)c7cnn8ccc(N9CCOCC9)nc78)c(C(F)F)n6)cc5)CC4)c3C2=O)C(=O)N1 (centres unmarked) [I-403] | 50 to 100 nM | > 1000 nM | 10 to 100 nM | – | – | – |
| CN(CCC#CCN)C[C@H]1CC[C@H](n2cc(NC(=O)c3cnn4ccc(N5CCOCC5)nc34)c(C(F)F)n2)CC1 [I-412, N-[1-[4-[[5-aminopent-3-ynyl(methyl)amino]methyl]cyclohexyl]-3-(difluoromethyl)pyrazol-4-yl]-5-morpholino-pyrazolo [1,5-a]pyrimidine-3-carboxamide] | > 1000 nM | > 1000 nM | > 1000 nM | – | – | – |
| Cn1c(=O)n(C2CCC(=O)NC2=O)c2ccc(CN3CCC(CCN4CCC(n5cc(NC(=O)c6coc(-c7ccnc(NCC8CC8)c7)n6)c(C(F)F)n5)CC4)CC3)cc21 (centres unmarked) [I-181] | 100 to 500 nM | 100 to 1000 nM | – | – | – | – |
| CN(CCC(C)(C)O)c1ccn2ncc(C(=O)Nc3cn([C@H]4CC[C@H](CN(C)[C@H]5CC[C@H](Nc6cccc7c6C(=O)N(C6CCC(=O)NC6=O)C7=O)CC5)CC4)nc3C(F)F)c2n1 (some centres unmarked) [I-504] | 100 to 500 nM | – | – | > 1000 nM | 10 to 100 nM | – |
| O=C1CCC(N2C(=O)c3cccc(NCCCOC[C@@H]4CN(Cc5ccc(-n6cc(NC(=O)c7coc(-c8ccnc(NCC9CC9)c8)n7)c(C(F)F)n6)cc5)CCO4)c3C2=O)C(=O)N1 (some centres unmarked) [I-393] | 50 to 100 nM | 100 to 1000 nM | 10 to 100 nM | – | – | – |
| O=C1CCC(N2C(=O)c3cccc(NCC4CCC5(CC4)CN(C[C@H]4CC[C@H](n6cc(NC(=O)c7cnn8ccc(N9C[C@H]%10C[C@@H]9CO%10)nc78)c(C(F)F)n6)CC4)C5)c3C2=O)C(=O)N1 (some centres unmarked) [I-552] | < 50 nM | – | – | 100 to 1000 nM | – | – |
| O=C1CCC(N2C(=O)c3cccc(NCCCOC4CCN(C[C@H]5CC[C@H](n6cc(NC(=O)c7cnn8ccc(N9CC%10(COC%10)C9)nc78)c(C(F)F)n6)CC5)CC4)c3C2=O)C(=O)N1 (some centres unmarked) [I-364] | 50 to 100 nM | – | 10 to 100 nM | – | – | – |
| CN(CCCCCCCNC(=O)c1ccc(CNCc2ccc(-c3ccc4c(cnn4CC4CC4)c3)cc2)cc1)C[C@H]1CC[C@H](n2cc(NC(=O)c3coc(-c4ccnc(NCC5CC5)c4)n3)c(C(F)F)n2)CC1 [I-135] | > 1000 nM | 100 to 1000 nM | > 1000 nM | – | – | – |
| O=C1CCC(N2C(=O)c3cccc(NCCOC4CCN(C[C@H]5CC[C@H](n6cc(NC(=O)c7cnn8ccc(N9C[C@H]%10C[C@@H]9CO%10)nc78)c(C(F)F)n6)CC5)CC4)c3C2=O)C(=O)N1 (some centres unmarked) [I-299] | 50 to 100 nM | 10 to 100 nM | – | – | – | – |
| CN(C[C@H]1CC[C@H](C2N=C(NC(=O)c3cnn4ccc(N5CCOCC5)nc34)C(C(F)F)=N2)CC1)C1CCC(CNc2cccc3c2C(=O)N(C2CCC(=O)NC2=O)C3=O)CC1 (some centres unmarked) [I-459] | < 50 nM | – | – | 100 to 1000 nM | 10 to 100 nM | – |
| CN(CCN(C)CC1CCC(n2cc(NC(=O)c3cnn4ccc(N5C[C@H]6C[C@@H]5CO6)nc34)c(C(F)F)n2)CC1)Cc1ccc(COc2cccc3c2C(=O)N(C2CCC(=O)NC2=O)C3=O)cc1 (some centres unmarked) [I-335] | 500 to 1000 nM | 100 to 1000 nM | – | – | – | – |
| CN1C(=O)C(C2CCC(=O)NC2=O)c2ccc(CN3CCC(N(C)C[C@H]4CC[C@H](n5cc(NC(=O)c6coc(-c7ccnc(NCC8CC8)c7)n6)c(C(F)F)n5)CC4)CC3)cc21 (some centres unmarked) [I-239] | – | 10 to 100 nM | – | – | – | > 1000 nM |
| CN(C[C@H]1CC[C@H](n2cc(NC(=O)c3cnn4ccc(N5CCOCC5)nc34)c(C(F)F)n2)CC1)[C@H]1C[C@H](Nc2cccc3c2C(=O)N(C2CCC(=O)NC2=O)C3=O)C1 (some centres unmarked) [I-458] | > 1000 nM | – | – | 100 to 1000 nM | > 1000 nM | – |
| CN(C[C@H]1CC[C@H](n2cc(NC(=O)c3coc(-c4ccnc(NCC5CC5)c4)n3)c(C(F)F)n2)CC1)C1CCN(Cc2cccc3c2C(=O)N(C2CCC(=O)NC2=O)C3=O)CC1 (some centres unmarked) [I-169] | > 1000 nM | < 10 nM | – | – | – | – |
| O=C1CCC(N2C(=O)c3cccc(NC4CCN(CCCNC[C@H]5CC[C@H](n6cc(NC(=O)c7cnn8ccc(N9CCOCC9)nc78)c(C(F)F)n6)CC5)CC4)c3C2=O)C(=O)N1 (some centres unmarked) [I-384] | < 50 nM | 10 to 100 nM | – | – | – | – |
| Cn1c(=O)n(C2CCC(=O)NC2=O)c2cccc(CCCOC3CCN(C(=O)[C@H]4CC[C@H](n5cc(NC(=O)c6cnn7ccc(N8CCNCC8)nc67)c(C(F)F)n5)CC4)CC3)c21 (some centres unmarked) [I-136] | > 1000 nM | < 10 nM | – | – | – | – |

| SMILES | IC50 (OCI-LY10; Homo sapiens, OCI-Ly10, 96 h) | DC50 (IRAK4; [1]) | DC50 (IRAK4; [2]) | DC50 (IRAK4; [3]) | DC50 (IRAK4; [4]) | IC50 (OCI-LY10) |
| --- | --- | --- | --- | --- | --- | --- |
| CN1C(=O)C(C2CCC(=O)NC2=O)c2cccc(CCCOC3CCN(C[C@H]4CC[C@H](n5cc(NC(=O)c6cnn7ccc(N8CC9(COC9)C8)nc67)c(C(F)F)n5)CC4)CC3)c21 (some centres unmarked) [I-287] | > 1000 nM | < 10 nM | – | – | – | – |
| CN(CCOCCNCc1ccc2c(c1)n(C)c(=O)n2C1CCC(=O)NC1=O)C[C@H]1CC[C@H](n2cc(NC(=O)c3coc(-c4ccnc(NCC5CC5)c4)n3)c(C(F)F)n2)CC1 (some centres unmarked) [I-107] | > 1000 nM | < 10 nM | – | – | – | – |
| Cn1c(=O)n(C2CCC(=O)NC2=O)c2cccc(CN3CCC(O[C@H]4C[C@H](N(C)C[C@H]5CC[C@H](n6cc(NC(=O)c7coc(-c8ccnc(NCC9CC9)c8)n7)c(C(F)F)n6)CC5)C4)CC3)c21 (some centres unmarked) [I-249] | < 50 nM | 10 to 100 nM | – | – | – | – |
| Cn1c(=O)n(C2CCC(=O)NC2=O)c2ccc(CCCOC3CCN(C[C@H]4CC[C@H](n5cc(NC(=O)c6cnn7ccc(N8CCNCC8)nc67)c(C(F)F)n5)CC4)CC3)cc21 (some centres unmarked) [I-162] | > 1000 nM | < 10 nM | – | – | – | – |
| COc1cc(C(=O)NCCCCCCN(C)C[C@H]2CC[C@H](n3cc(NC(=O)c4coc(-c5ccnc(NCC6CC6)c5)n4)c(C(F)F)n3)CC2)ccc1NC(=O)[C@@H]1N[C@@H](CC(C)(C)C)[C@](C#N)(c2ccc(Cl)cc2F)[C@H]1c1cccc(Cl)c1F [I-140] | – | > 1000 nM | > 1000 nM | – | – | > 1000 nM |
| Cn1c(=O)n(C2CCC(=O)NC2=O)c2cccc(CCCOCCOCCNC(=O)[C@H]3CC[C@@H](n4cc(NC(=O)c5coc(-c6ccnc(NCC7CC7)c6)n5)c(C(F)F)n4)CC3)c21 (some centres unmarked) [I-15] | > 1000 nM | 10 to 100 nM | 10 to 100 nM | – | – | – |
| O=C1CCC(N2C(=O)c3cccc(CCCOC4CCN(C[C@H]5CC[C@H](n6cc(NC(=O)c7coc(-c8ccnc(NCC9CC9)c8)n7)c(C(F)F)n6)CC5)CC4)c3C2=O)C(=O)N1 (some centres unmarked) [I-171] | 100 to 500 nM | 10 to 100 nM | – | – | – | – |
| CC[C@@H]1[C@H](F)C(=O)N[C@@H]1COc1ncc(C#C[C@H]2CC[C@H](CN)CC2)c2cc(C(N)=O)c(OC)cc12 [I-314, 4-[2-[4-(Aminomethyl)cyclohexyl]ethynyl]-1-[[(2S,3S,4S)-3-ethyl-4-fluoro-5-oxo-pyrrolidin-2-yl]methoxy]-7-methoxy-isoquinoline-6-carboxamide] | > 1000 nM | > 1000 nM | > 1000 nM | – | – | – |
| Cn1c(=O)n(C2CCC(=O)NC2=O)c2cccc(CN3CCC4(CC3)CN(C[C@H]3CC[C@H](n5cc(NC(=O)c6coc(-c7ccnc(NCC8CC8)c7)n6)c(C(F)F)n5)CC3)C4)c21 (some centres unmarked) [I-244] | 100 to 500 nM | < 10 nM | – | – | – | – |
| CN(CCc1ccc(CNc2cccc3c2C(=O)N(C2CCC(=O)NC2=O)C3=O)cc1)C[C@H]1CC[C@H](n2cc(NC(=O)c3cnn4ccc(N5C[C@H]6C[C@@H]5CO6)nc34)c(C(F)F)n2)CC1 (some centres unmarked) [I-359] | < 50 nM | > 1000 nM | > 1000 nM | – | – | – |
| NC[C@H]1CC[C@H](n2cc(NC(=O)c3coc(-c4ccnc(NCC5CC5)c4)n3)c(C(F)F)n2)CC1 [I-312, N-[1-[4-(aminomethyl)cyclohexyl]-3-(difluoromethyl)pyrazol-4-yl]-2-[2-(cyclopropylmethylamino)-4-pyridyl]oxazole-4-carboxamide] | > 1000 nM | > 1000 nM | > 1000 nM | – | – | – |
| CN(CCCOCCCc1cccc2c1n(C)c(=O)n2C1CCC(=O)NC1=O)C[C@H]1CC[C@H](n2cc(NC(=O)c3cnn4ccc(N5CCOCC5)nc34)c(C(F)F)n2)CC1 (some centres unmarked) [I-259] | > 1000 nM | < 10 nM | < 10 nM | – | – | – |
| CN(CCCOCCCNc1cccc2c1C(=O)N(C1CCC(=O)NC1=O)C2=O)C[C@H]1CC[C@H](n2cc(NC(=O)c3cnn4ccc(NCC5CC5)nc34)c(C(F)F)n2)CC1 (some centres unmarked) [I-437] | 100 to 500 nM | 10 to 100 nM | 10 to 100 nM | – | – | – |
| CN1C(=O)CCC(n2c(=O)n(C)c3c(CN4CCC(N(C)C[C@H]5CC[C@H](n6cc(NC(=O)c7coc(-c8ccnc(NCC9CC9)c8)n7)c(C(F)F)n6)CC5)CC4)cccc32)C1=O (some centres unmarked) [I-247] | > 1000 nM | 100 to 1000 nM | – | – | – | – |
| CN1C(=O)C(C2CCC(=O)NC2=O)c2cccc(CCCOC3CCN(C[C@H]4CC[C@H](n5cc(NC(=O)c6cnn7ccc(N8CC(O)C8)nc67)c(C(F)F)n5)CC4)CC3)c21 (some centres unmarked) [I-284] | > 1000 nM | < 10 nM | – | – | – | – |
| O=C1CCC(N2C(=O)c3cccc(OCCCOC4CCN(C[C@H]5CC[C@H](n6cc(NC(=O)c7cnn8ccc(N[C@@H]9CCCC[C@@H]9O)nc78)c(C(F)F)n6)CC5)CC4)c3C2=O)C(=O)N1 (some centres unmarked) [I-296] | > 1000 nM | 10 to 100 nM | – | – | – | – |

From patent US11352350B2, “IRAK degraders and uses thereof” (Kymera Therapeutics, Inc., priority 2018, dated 2022)
